Results reported in ChEMBL document CHEMBL2413021, “Regioselective synthesis of 6-aryl-benzo[h][1,2,4]-triazolo[5,1-b]quinazoline-7,8-diones as potent antitumoral agents” (Bioorg Med Chem Lett, 2013).

How the values were obtained:
HepG2 = test: Cytotoxicity against human HepG2 cells after 48 hrs by MTT assay; assay type: functional, cell-based; conditions: HepG2, 48 h
SGC-7901 = test: Cytotoxicity against human SGC7901 cells after 48 hrs by MTT assay; assay type: functional, cell-based; conditions: SGC-7901, 48 h

O=C1C(=O)c2c(nc3ncnn3c2-c2ccc(F)cc2)-c2ccccc21
IC50 (HepG2): 7.85 µM
IC50 (SGC-7901): 6120 nM

O=C1C(=O)c2c(nc3ncnn3c2-c2ccccc2)-c2ccccc21
IC50 (HepG2): 3.45 µM
IC50 (SGC-7901): 2160 nM

COc1cccc2c1C(=O)c1c(O)c3c(c(O)c1C2=O)C[C@@](O)(C(=O)CO)C[C@@H]3O[C@H]1C[C@H](N)[C@H](O)[C@H](C)O1 [DOXORUBICIN]
IC50 (HepG2): 1.02 µM
IC50 (SGC-7901): 5720 nM

O=C1C(=O)c2c(nc3ncnn3c2-c2cccc([N+](=O)[O-])c2)-c2ccccc21
IC50 (HepG2): 15.3 µM
IC50 (SGC-7901): 9880 nM

COc1cc(-c2c3c(nc4ncnn24)-c2ccccc2C(=O)C3=O)cc(OC)c1OC
IC50 (HepG2): 17.9 µM
IC50 (SGC-7901): 59200 nM

Cc1ccc(-c2c3c(nc4ncnn24)-c2ccccc2C(=O)C3=O)cc1
IC50 (HepG2): 1.19 µM
IC50 (SGC-7901): 1710 nM

O=C1C(=O)c2c(nc3ncnn3c2-c2cccs2)-c2ccccc21
IC50 (HepG2): 2.13 µM
IC50 (SGC-7901): 1450 nM

O=C1C(=O)c2c(nc3ncnn3c2-c2ccc(Cl)cc2)-c2ccccc21
IC50 (HepG2): 24.9 µM
IC50 (SGC-7901): 34900 nM

O=C1C(=O)c2c(nc3ncnn3c2-c2ccc([N+](=O)[O-])cc2)-c2ccccc21
IC50 (HepG2): 4.74 µM
IC50 (SGC-7901): 2650 nM

O=C1C(=O)c2c(nc3ncnn3c2-c2ccc(Cl)cc2Cl)-c2ccccc21
IC50 (HepG2): 2.99 µM
IC50 (SGC-7901): 1830 nM

Clc1ccc(-c2c3c(nc4ncnn24)c2ccccc2c2nc4ccccc4nc23)cc1
IC50 (HepG2): > 200 µM
IC50 (SGC-7901): > 200000 nM

COc1ccc(-c2c3c(nc4ncnn24)-c2ccccc2C(=O)C3=O)cc1
IC50 (HepG2): 1.71 µM
IC50 (SGC-7901): 1310 nM
